Among the data in ChEMBL document CHEMBL1127881 (Bioorg Med Chem Lett, 1994) are IC50 values, retold here.

Common to all, as to type: tissue-based
The target of assay [1] is Muscarinic acetylcholine receptor. The experiment in a line: Compound was tested for its ability to inhibit muscarinic receptor in rat cerebral cortex using [3H]oxotremorine-M (OXO-M); Range is 240-290.
The target is the same in assay [2]. The experiment in a line: Compound was tested for its ability to inhibit muscarinic receptor in rat cerebral cortex using [3H]quinuclidinyl benzilate (QNB);.
For assay [3] the target is unchanged. The experiment in a line: Compound was tested for its ability to inhibit muscarinic receptor in rat cerebral cortex using [3H]quinuclidinyl benzilate (QNB); Range is 3400-4200.
The target is the same in assay [4]. Briefly: Compound was tested for its ability to inhibit muscarinic receptor in rat cerebral cortex using [3H]oxotremorine-M (OXO-M); Range is 21-36.
Assay [5] shares this target. The experiment in a line: Compound was tested for its ability to inhibit muscarinic receptor in rat cerebral cortex using [3H]quinuclidinyl benzilate (QNB); Range is 330-360.
Assay [6] shares this target. The experiment in a line: Compound was tested for its ability to inhibit muscarinic receptor in rat cerebral cortex using [3H]oxotremorine-M (OXO-M); Range is 18-21.
For assay [7] the target is unchanged. The experiment in a line: Compound was tested for its ability to inhibit muscarinic receptor in rat cerebral cortex using [3H]quinuclidinyl benzilate (QNB); Range is 530-1100.
Assay [8] shares this target. Briefly: Compound was tested for its ability to inhibit muscarinic receptor in rat cerebral cortex using [3H]oxotremorine-M (OXO-M); Range is 48-100.
Assay [9] shares this target. Briefly: Compound was tested for its ability to inhibit muscarinic receptor in rat cerebral cortex using [3H]quinuclidinyl benzilate (QNB); Range is 4300-9500.
The target is the same in assay [10]. The experiment in a line: Compound was tested for its ability to inhibit muscarinic receptor in rat cerebral cortex using [3H]oxotremorine-M (OXO-M); Range is 120-220.
The target is the same in assay [11]. Briefly: Compound was tested for its ability to inhibit muscarinic receptor in rat cerebral cortex using [3H]quinuclidinyl benzilate (QNB); Range is 730-1300.
Assay [12] shares this target. The experiment in a line: Compound was tested for its ability to inhibit muscarinic receptor in rat cerebral cortex using [3H]oxotremorine-M (OXO-M); Range is 62-70.
The target is the same in assay [13]. The experiment in a line: Compound was tested for its ability to inhibit muscarinic receptor in rat cerebral cortex using [3H]quinuclidinyl benzilate (QNB); Range is […].
For assay [14] the target is unchanged. Briefly: Compound was tested for its ability to inhibit muscarinic receptor in rat cerebral cortex using [3H]oxotremorine-M (OXO-M); Range is 28-58.
For assay [15] the target is unchanged. The experiment in a line: Compound was tested for its ability to inhibit muscarinic receptor in rat cerebral cortex using [3H]quinuclidinyl benzilate (QNB); Range is 9700-23000.
For assay [16] the target is unchanged. The experiment in a line: Compound was tested for its ability to inhibit muscarinic receptor in rat cerebral cortex using [3H]oxotremorine-M (OXO-M); Range is 65-260.

In the case of `CO/N=C(/Cl)C1=CCCN(C)C1`, the IC50 was determined as 260 nM in assay [1] and 2800 nM in [2].

`COC(=O)C1=CC2CCN(C1)C2` (configuration not stated): the IC50 in assay [3] came out at 3800 nM; in [4], 27 nM.

For the compound `CO/N=C(/C#N)C1=CC2CCN(C1)C2` (configuration not stated), the IC50 is listed as 350 nM in [5] and 20 nM in assay [6].

On to `CO/N=C(/Cl)C1=CC2CCN(C1)C2` (configuration not stated), for which the results for the IC50 in assay [7] and in assay [8] were 770 nM and 69 nM, respectively.

Consider `CO/N=C(/C#N)C1=CCCN(C)C1`, for which the IC50 is recorded as 4500 nM in assay [9] and 150 nM in assay [10].

Turning to `CO/N=C\C1=CC2CCN(C1)C2` (configuration not stated), the IC50 in [11] came out at 960 nM; in assay [12] it was 64 nM.

For `CO/N=C(/F)C1=CC2CCN(C1)C2` (configuration not stated), the IC50 is given as 630 nM in assay [13] and 26 nM in assay [14].

For `CO/N=C\C1=CCCN(C)C1`, the figures for the IC50 in assay [15] and in assay [16] were 14000 nM and 110 nM, respectively.

Regarding `CO/N=C(/F)C1=CCCN(C)C1`, the IC50 in [14] is listed as 39 nM.

For orientation: IC50 means the midpoint of a concentration-inhibition curve. A higher IC50 goes with a need for much substance.
